In patent US10947271B2, “Antibacterial agents” (THE UNIVERSITY OF QUEENSLAND, priority 2014, dated 2021):

How the values were obtained:
Format in all cases: cell-based
Conditions in all cases: 24 h incubation, visual reading
[1] = tested on: Staphylococcus aureus MRSA ATCC 43300; test: MIC assay, S. aureus MRSA ATCC 43300
Procedure: (§1) Antimicrobial activity of compounds was tested against a number of bacterial strains, including Staphylococcus aureus (MRSA ATCC 43300, GISA NRS17, VISA NRS1, MRSA clinical isolate, daptomycin resistant clinical isolate), Streptococcus pneumoniae (MDR ATCC 700677), Enterococcus faecalis (VanA clinical isolate) and Enterococcus faecium (MDR Van A ATCC 51559).
(§2) All compounds were prepared to 160 μg/ml solution in water from a stock solution of 1 mM concentration.
(§3) The compounds, along with standard antibiotics were serially diluted twofold across the wells of 96-well non-binding surface plates (NBS, Corning). Standards ranged from 64 μg/ml to 0.03 μg/ml and compounds from 8 μg/ml to 0.003 μg/ml with final volumes of 50 μL per well. Gram positive bacteria were cultured in Muller Hinton broth (MHB) (Bacto laboratories, Cat. no. 211443) at 37° C. overnight. A sample of each culture was then diluted 40-fold in fresh MHB broth and incubated at 37° C. for 2-3 hrs. The resultant mid-log phase cultures were diluted to the final concentration of 5×10e5 CFU/mL, then 50 μL was added to each well of the compound-containing 96-well plates. All the plates were covered and incubated at 37° C. for 24 h. MICs were the lowest concentration showing no visible growth.
(§4) MICs were determined visually at 24 hr incubation and the MIC was defined as the lowest concentration with which no growth was visible after incubation. Both MIC and MBC were determined by visual inspection only.

[2] = tested on: Streptococcus pneumoniae MDR ATCC 700677; test: MIC assay, S. pneumoniae MDR ATCC 700677
Procedure: as §1, §2, §3, §4

[3] = tested on: Enterococcus faecium MDR Van A ATCC 51559; test: MIC assay, E. faecium MDR Van A ATCC 51559
Procedure: as §1, §2, §3, §4

CCCCCCCCCCCCCC(=O)N[C@@H](CCCCN)C(=O)N[C@@H](CCCCN)C(=O)N[C@@H](CCCCNC(=O)[C@H]1NC(=O)[C@H]2NC(=O)[C@H](NC(=O)[C@@H]3NC(=O)[C@H](CC(N)=O)NC(=O)[C@H](NC(=O)[C@@H](CC(C)C)NC)[C@H](O)c4ccc(c(Cl)c4)Oc4cc3cc(c4O[C@@H]3O[C@H](CO)[C@@H](O)[C@H](O)[C@H]3O[C@H]3C[C@](C)(N)[C@H](O)[C@H](C)O3)Oc3ccc(cc3Cl)[C@H]2O)c2ccc(O)c(c2)-c2c(O)cc(O)cc21)C(N)=O [MCC_000974]
Minimum Inhibitory Concentration (MIC) Staph. aureus ATCC43300 [1]: xxxxx (xxxxx = <0.01)
Minimum Inhibitory Concentration (MIC) S. pneumoniae ATCC 700677 [2]: xxxxx (xxxxx = <0.01)
Minimum Inhibitory Concentration (MIC) E. faecium ATCC51559 [3]: xxx (xxx = 0.1-<1)

CCCCCCCCCCC(=O)NC(CCCCN(C)C)C(=O)NCCCNC(=O)C1NC(=O)C2NC(=O)C(NC(=O)C3NC(=O)C(CC(N)=O)NC(=O)C(NC(=O)C(CC(C)C)NC)C(O)c4ccc(c(Cl)c4)Oc4cc3cc(c4OC3OC(CO)C(O)C(O)C3OC3CC(C)(N)C(O)C(C)O3)Oc3ccc(cc3Cl)C2O)c2ccc(O)c(c2)-c2c(O)cc(O)cc21 (stereo not drawn) [MCC_007340]
Minimum Inhibitory Concentration (MIC) Staph. aureus ATCC43300 [1]: xxxxx (xxxxx = <0.01)
Minimum Inhibitory Concentration (MIC) S. pneumoniae ATCC 700677 [2]: xxxx (xxxx = 0.01-<0.1)
Minimum Inhibitory Concentration (MIC) E. faecium ATCC51559 [3]: xx (xx = 1-4)

CCCCCCCCCC(=O)NC(CCCNC(=N)N)C(=O)NC(CCCCN)C(=O)NCCCNC(=O)C1NC(=O)C2NC(=O)C(NC(=O)C3NC(=O)C(CC(N)=O)NC(=O)C(NC(=O)C(CC(C)C)NC)C(O)c4ccc(c(Cl)c4)Oc4cc3cc(c4OC3OC(CO)C(O)C(O)C3OC3CC(C)(N)C(O)C(C)O3)Oc3ccc(cc3Cl)C2O)c2ccc(O)c(c2)-c2c(O)cc(O)cc21 (stereo not drawn) [MCC_005487]
Minimum Inhibitory Concentration (MIC) Staph. aureus ATCC43300 [1]: xxxxx (xxxxx = <0.01)
Minimum Inhibitory Concentration (MIC) S. pneumoniae ATCC 700677 [2]: xxxx (xxxx = 0.01-<0.1)
Minimum Inhibitory Concentration (MIC) E. faecium ATCC51559 [3]: xxx (xxx = 0.1-<1)

CN[C@H](CC(C)C)C(=O)N[C@H]1C(=O)N[C@@H](CC(N)=O)C(=O)N[C@H]2C(=O)N[C@H]3C(=O)N[C@H](C(=O)N[C@H](C(=O)NCCCC[C@H](NC(=O)[C@H](CCCCN)NC(=O)[C@H](CCCCN)NC(=O)CCCOc4ccccc4)C(=O)O)c4cc(O)cc(O)c4-c4cc3ccc4O)[C@H](O)c3ccc(c(Cl)c3)Oc3cc2cc(c3O[C@@H]2O[C@H](CO)[C@@H](O)[C@H](O)[C@H]2O[C@H]2C[C@](C)(N)[C@H](O)[C@H](C)O2)Oc2ccc(cc2Cl)[C@H]1O [MCC_005501]
Minimum Inhibitory Concentration (MIC) Staph. aureus ATCC43300 [1]: xx (xx = 1-4)
Minimum Inhibitory Concentration (MIC) S. pneumoniae ATCC 700677 [2]: xx (xx = 1-4)
Minimum Inhibitory Concentration (MIC) E. faecium ATCC51559 [3]: x (x = >4)

CNC(=O)C(CCCCNC(=O)C1NC(=O)C2NC(=O)C(NC(=O)C3NC(=O)C(CC(N)=O)NC(=O)C(NC(=O)C(CC(C)C)NC)C(O)c4ccc(c(Cl)c4)Oc4cc3cc(c4OC3OC(CO)C(O)C(O)C3OC3CC(C)(N)C(O)C(C)O3)Oc3ccc(cc3Cl)C2O)c2ccc(O)c(c2)-c2c(O)cc(O)cc21)NC(=O)C(CCCCN)NC(=O)C(CCCCN)NC(=O)Cc1ccc(-c2ccccc2)cc1 (stereo not drawn) [MCC_000512]
Minimum Inhibitory Concentration (MIC) Staph. aureus ATCC43300 [1]: xxx (xxx = 0.1-<1)
Minimum Inhibitory Concentration (MIC) S. pneumoniae ATCC 700677 [2]: xxx (xxx = 0.1-<1)
Minimum Inhibitory Concentration (MIC) E. faecium ATCC51559 [3]: x (x = >4)

CCCCCCC(CCCC)C(=O)NCCCC[C@H](NC(=O)C(CCCC)CCCCCC)C(=O)N[C@@H](CCCCN)C(=O)N[C@@H](CCCCN)C(=O)N[C@@H](CCCCNC(=O)[C@H]1NC(=O)[C@H]2NC(=O)[C@H](NC(=O)[C@@H]3NC(=O)[C@H](CC(N)=O)NC(=O)[C@H](NC(=O)[C@@H](CC(C)C)NC)[C@H](O)c4ccc(c(Cl)c4)Oc4cc3cc(c4O[C@@H]3O[C@H](CO)[C@@H](O)[C@H](O)[C@H]3O[C@H]3C[C@](C)(N)[C@H](O)[C@H](C)O3)Oc3ccc(cc3Cl)[C@H]2O)c2ccc(O)c(c2)-c2c(O)cc(O)cc21)C(=O)NC (stereo partly drawn) [MCC_000773]
Minimum Inhibitory Concentration (MIC) Staph. aureus ATCC43300 [1]: xxxx (xxxx = 0.01-<0.1)
Minimum Inhibitory Concentration (MIC) S. pneumoniae ATCC 700677 [2]: xxxx (xxxx = 0.01-<0.1)
Minimum Inhibitory Concentration (MIC) E. faecium ATCC51559 [3]: xxx (xxx = 0.1-<1)

CNC(=O)[C@H](CCCCNC(=O)[C@H]1NC(=O)[C@H]2NC(=O)[C@H](NC(=O)[C@@H]3NC(=O)[C@H](CC(N)=O)NC(=O)[C@H](NC(=O)[C@@H](CC(C)C)NC)[C@H](O)c4ccc(c(Cl)c4)Oc4cc3cc(c4O[C@@H]3O[C@H](CO)[C@@H](O)[C@H](O)[C@H]3O)Oc3ccc(cc3Cl)[C@H]2O)c2ccc(O)c(c2)-c2c(O)cc(O)cc21)NC(=O)[C@H](CCCCN)NC(=O)[C@H](CCCCN)NC(=O)[C@H](CCCCNC(=O)c1ccc(Oc2ccc(F)cc2)cc1)NC(=O)c1ccc(Oc2ccc(F)cc2)cc1 [MCC_000651]
Minimum Inhibitory Concentration (MIC) Staph. aureus ATCC43300 [1]: xxxxx (xxxxx = <0.01)
Minimum Inhibitory Concentration (MIC) S. pneumoniae ATCC 700677 [2]: xxxx (xxxx = 0.01-<0.1)
Minimum Inhibitory Concentration (MIC) E. faecium ATCC51559 [3]: xx (xx = 1-4)

CCCCCCCCCCCCC(=O)N[C@@H](CCCCN)C(=O)N[C@@H](CCCCN)C(=O)N[C@@H](CCCCNC(=O)[C@H]1NC(=O)[C@H]2NC(=O)[C@H](NC(=O)[C@@H]3NC(=O)[C@H](CC(N)=O)NC(=O)[C@H](NC(=O)[C@@H](CC(C)C)NC)[C@H](O)c4ccc(c(Cl)c4)Oc4cc3cc(c4O[C@@H]3O[C@H](CO)[C@@H](O)[C@H](O)[C@H]3O[C@H]3C[C@](C)(N)[C@H](O)[C@H](C)O3)Oc3ccc(cc3Cl)[C@H]2O)c2ccc(O)c(c2)-c2c(O)cc(O)cc21)C(N)=O [MCC_000975]
Minimum Inhibitory Concentration (MIC) Staph. aureus ATCC43300 [1]: xxxxx (xxxxx = <0.01)
Minimum Inhibitory Concentration (MIC) S. pneumoniae ATCC 700677 [2]: xxxxx (xxxxx = <0.01)
Minimum Inhibitory Concentration (MIC) E. faecium ATCC51559 [3]: xxx (xxx = 0.1-<1)

CCCCCCCCCCCCCC(=O)NC(CCCCN)C(=O)NC(CCCCN)C(=O)NC(CCCCN)C(=O)NC(CCCCNC(=O)C1NC(=O)C2NC(=O)C(NC(=O)C3NC(=O)C(CC(N)=O)NC(=O)C(NC(=O)C(CC(C)C)NC)C(O)c4ccc(c(Cl)c4)Oc4cc3cc(c4OC3OC(CO)C(O)C(O)C3OC3CC(C)(N)C(O)C(C)O3)Oc3ccc(cc3Cl)C2O)c2ccc(O)c(c2)-c2c(O)cc(O)cc21)C(=O)OC (stereo not drawn) [MCC_000635]
Minimum Inhibitory Concentration (MIC) Staph. aureus ATCC43300 [1]: xxxxx (xxxxx = <0.01)
Minimum Inhibitory Concentration (MIC) S. pneumoniae ATCC 700677 [2]: xxxxx (xxxxx = <0.01)
Minimum Inhibitory Concentration (MIC) E. faecium ATCC51559 [3]: xxxxx (xxxxx = <0.01)

CCCCCCCCCCCC(=O)N[C@@H](CCCCN)C(=O)N[C@@H](CCCCNC(=O)[C@H]1NC(=O)[C@H]2NC(=O)[C@H](NC(=O)[C@@H]3NC(=O)[C@H](CC(N)=O)NC(=O)[C@H](NC(=O)[C@@H](CC(C)C)NC)[C@H](O)c4ccc(c(Cl)c4)Oc4cc3cc(c4O[C@@H]3O[C@H](CO)[C@@H](O)[C@H](O)[C@H]3O[C@H]3C[C@](C)(N)[C@H](O)[C@H](C)O3)Oc3ccc(cc3Cl)[C@H]2O)c2ccc(O)c(c2)-c2c(O)cc(O)cc21)C(N)=O [MCC_005063]
Minimum Inhibitory Concentration (MIC) Staph. aureus ATCC43300 [1]: xxxxx (xxxxx = <0.01)
Minimum Inhibitory Concentration (MIC) S. pneumoniae ATCC 700677 [2]: xxxxx (xxxxx = <0.01)
Minimum Inhibitory Concentration (MIC) E. faecium ATCC51559 [3]: xx (xx = 1-4)

CCCCCOc1ccc(C(=O)N[C@@H](CCCCN)C(=O)N[C@@H](CCCCN)C(=O)N[C@@H](CCCCNC(=O)[C@H]2NC(=O)[C@H]3NC(=O)[C@H](NC(=O)[C@@H]4NC(=O)[C@H](CC(N)=O)NC(=O)[C@H](NC(=O)[C@@H](CC(C)C)NC)[C@H](O)c5ccc(c(Cl)c5)Oc5cc4cc(c5O[C@@H]4O[C@H](CO)[C@@H](O)[C@H](O)[C@H]4O[C@H]4C[C@](C)(N)[C@H](O)[C@H](C)O4)Oc4ccc(cc4Cl)[C@H]3O)c3ccc(O)c(c3)-c3c(O)cc(O)cc32)C(=O)O)cc1 [MCC_005504]
Minimum Inhibitory Concentration (MIC) Staph. aureus ATCC43300 [1]: xxx (xxx = 0.1-<1)
Minimum Inhibitory Concentration (MIC) S. pneumoniae ATCC 700677 [2]: xxx (xxx = 0.1-<1)
Minimum Inhibitory Concentration (MIC) E. faecium ATCC51559 [3]: x (x = >4)

CCCCCCCC(=O)NCCCCC(NC(=O)CCCCCCC)C(=O)NC(CCCCN)C(=O)NC(CCCCNC(=O)C1NC(=O)C2NC(=O)C(NC(=O)C3NC(=O)C(CC(N)=O)NC(=O)C(NC(=O)C(CC(C)C)NC)C(O)c4ccc(c(Cl)c4)Oc4cc3cc(c4OC3OC(CO)C(O)C(O)C3OC3CC(C)(N)C(O)C(C)O3)Oc3ccc(cc3Cl)C2O)c2ccc(O)c(c2)-c2c(O)cc(O)cc21)C(=O)NC (stereo not drawn) [MCC_000490]
Minimum Inhibitory Concentration (MIC) Staph. aureus ATCC43300 [1]: xxxx (xxxx = 0.01-<0.1)
Minimum Inhibitory Concentration (MIC) S. pneumoniae ATCC 700677 [2]: xxxxx (xxxxx = <0.01)
Minimum Inhibitory Concentration (MIC) E. faecium ATCC51559 [3]: x (x = >4)

CNC(=O)[C@H](CCCCNC(=O)[C@H]1NC(=O)[C@H]2NC(=O)[C@H](NC(=O)[C@@H]3NC(=O)[C@H](CC(N)=O)NC(=O)[C@H](NC(=O)[C@@H](CC(C)C)NC)[C@H](O)c4ccc(c(Cl)c4)Oc4cc3cc(c4O[C@@H]3O[C@H](CO)[C@@H](O)[C@H](O)[C@H]3O)Oc3ccc(cc3Cl)[C@H]2O)c2ccc(O)c(c2)-c2c(O)cc(O)cc21)NC(=O)[C@H](CCCCN)NC(=O)[C@H](CCCCN)NC(=O)[C@H](CCCCNC(=O)Cc1ccc(-c2ccccc2)cc1)NC(=O)Cc1ccc(-c2ccccc2)cc1 [MCC_000653]
Minimum Inhibitory Concentration (MIC) Staph. aureus ATCC43300 [1]: xxxx (xxxx = 0.01-<0.1)
Minimum Inhibitory Concentration (MIC) S. pneumoniae ATCC 700677 [2]: xxxx (xxxx = 0.01-<0.1)
Minimum Inhibitory Concentration (MIC) E. faecium ATCC51559 [3]: xx (xx = 1-4)
